In patent US20260055083A1, “APOL1 INHIBITORS AND METHODS OF USE” (Maze Therapeutics, Inc., priority 2022, published 2026) one finds AC50 and EC50 data, which are given here for 10 compounds.

SMILES strings stand for the structures.

Assay [1] addresses T1, APOL1 G2 (Homo sapiens, UniProt O14791, DEL388-389).
T1 construct: expressed in transfected cells; host or cells: HEK293/T-REx APOL1 G2 clone #2, doxycycline-inducible
T1 sequence (O14791 with tags, fused parts or gaps DEL388-389): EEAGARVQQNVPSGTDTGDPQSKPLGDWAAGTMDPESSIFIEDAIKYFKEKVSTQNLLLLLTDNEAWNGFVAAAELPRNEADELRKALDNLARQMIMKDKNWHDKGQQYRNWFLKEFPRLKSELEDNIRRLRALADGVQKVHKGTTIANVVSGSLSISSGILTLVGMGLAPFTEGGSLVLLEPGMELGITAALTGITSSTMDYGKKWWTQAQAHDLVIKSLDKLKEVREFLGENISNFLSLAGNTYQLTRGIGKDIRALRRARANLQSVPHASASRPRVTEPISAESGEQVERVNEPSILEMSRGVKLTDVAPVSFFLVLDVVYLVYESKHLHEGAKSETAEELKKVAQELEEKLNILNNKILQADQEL
The assay can be described thus: APOL1 G2 FLIPR calcium influx assay (HEK T-REx/GCaMP6f/APOL1 G2 K6.3 cells). It is filed as cell-based. Conditions: HEK293 clone expressing GCaMP6f, doxycycline-induced APOL1 G2; prevention of calcium influx; geometric mean of at least 2 assay runs. The protocol: A HEK293 clonal cell line was generated to stably express GCaMP6f, a genetically encoded calcium indicator, and inducibly express APOL1 G2 (HEK T-REx/GCaMP6f/APOL1 G2 K6.3). Cells were maintained in the following standard complete medium: DMEM with 4.5 g/L glucose and sodium pyruvate (BioWhittaker, Lonza, BE12-614F), supplemented with 10% FBS Performance Plus (Gibco, 16000044), 1% penicillin-streptomycin (BioWhittaker, DE17-602E), 2 mM ultraglutamine-1 (BioWhittaker cat. BE 17-605/U1), 50 μg/mL Zeocin (InvivoGen, ant-zn), 2.5 μg/mL Blasticidin (InvivoGen, ant-bl-5), and 25 μg/mL Hygromycin (InvivoGen, ant-hg). Standard propagation conditions consisted of plating 9×10^6, 4×10^6, 2×10^6 cells in a T225 flasks to be processed after 2, 3, or 4 days, respectively.
A source plate was generated containing 20 serially diluted compounds in DMSO (duplicate 8-point dose response). Next, 0.8 μL of compounds were transferred from the source plate to a destination plate prefilled with 79.2 μL of Ca^2+ free Tyrode's buffer (130 mM NaCl, 5 mM KCl, 1 mM MgCl2, 5 mM NaHCO3, 20 mM HEPES at pH 7.4). The destination plate was placed on a plate shaker (5 seconds at 2000 rpm) to mix. […] All transfer and mixing steps were conducted with an CyBi®-Well dispenser.
Cells were split by gently washing with DPBS (Euroclone, ECB4004L), followed by a 5-minute incubation (humidified, 37° C. with 5% CO2) with trypsin-EDTA solution (Euroclone, ECB3052D). Detached cells were diluted with standard complete medium without selective agents, counted, and plated in a 384 MTP microplate (GR4332CPL, Twin Helix) (10,000 cells/well in 25 μl/well) using a MATRIX WellMate dispenser. Plates were placed into a humidified incubator (37° C. with 5% CO2) overnight. The following day, 20 μL of doxycycline (Sigma, D9891) at 20 ng/mL in standard complete medium was added to cells with a CyBi®Drop dispenser to induce APOL1 G2 expression. After a 6-hour incubation (humidified, 37° C. with 5% CO2), cells were washed 3 times with Ca^2+ free Tyrode's Buffer (130 mM NaCl, 5 mM KCl, 1 mM MgCl2, 5 mM NaHCO3, 20 mM HEPES at pH 7.4) using a BIOTEK Microplate washer, such that 10 μL of buffer remained in each well after the final wash. Assay plates were then stored at room temperature for 10 minutes. Next, 10 μL of diluted compounds were transferred to the assay plate from the 2× compound plate using a CyBi®-Well dispenser. Compound incubation was then carried out at room temperature for 10 minutes. The assay plate was transferred to the […] and 20 μL of 10 mM Ca^2+ (final concentration=5 mM) Tyrode's buffer was injected.
Table B1 below summarizes the data from this experiment. Unless otherwise specified, AC50 and values are reported as the geometric mean of at least 2 assay runs on separate days. Each run represents the average of a technical replicate, where each compound was assayed twice in the same plate. A superscript t symbol indicates a value from the average of a technical replicate from a single assay run, where each compound was assayed twice in the same plate.
The AC50 values in Table B1 below reflect the compound's ability to prevent calcium influx by inhibiting APOL1. […] Compounds in Table B1 are referred to by the corresponding Compound Number in Table 1, which is also referred to in the synthetic examples. When one or more of the numbered compounds are identified by stereochemistry (for example, (R)- or (S)-), the specific stereoisomer for which data is provided in Table B1 may be identified by the elution order of such compound as described in the synthetic examples. To illustrate, Compound 2 is the first-eluting enantiomer of step 4 of Example 1 and Compound 3 is the second-eluting enantiomer of step 4 of Example 1. Further, by way of illustration, Compound 27 is the first-eluting enantiomeric mixture in step 4 of Example 7 and Compound 28 is the second-eluting enantiomeric mixture in step 4 of Example 7. […]

Assay [2] concerns the target T1, APOL1 G2. As to the kind of experiment: APOL1 G2 HEK293 rescue of cell death caused by overexpression of APOL1 (CellTiter-Glo). Format: cell-based. Conditions: HEK293/T-REx APOL1 G2 clone #2, doxycycline induction, 17 hours, CellTiter-Glo luminescence; reversal of cell death; geometric mean of at least 2 assay runs. The protocol:
A HEK293 clonal cell line overexpressing APOL1 G2 (HEK293/T-REx APOL1 G2/clone #2) was maintained in 1×DMEM-GlutaMax (Gibco, 10569-010) media with 10% tetracycline-free FBS (Takara Bio USA, 631101), 5 μg/mL Blasticidin (Gibco, A1113903), and 100 μg/mL Zeocin (Invitrogen, R25001) in T75 flasks. In preparation for the assay, this media was aspirated and 2 mL of prewarmed TrypLE Express (Gibco, 12605-010) was added to a flask to detach cells. The flask was then incubated (humidified, 37° C. with 5% CO2) for 3-5 minutes. Afterwards, 8 mL of prewarmed cell assay media (1×DMEM-GlutaMax media with 10% tetracycline-free FBS) was added to the trypsinized cells. The suspension was gently mixed, and cells were counted using a Countess Cell Counting Chamber (Invitrogen). The suspension was diluted using cell assay media to generate a working stock solution (166,667 cells/mL). Using a MultiDrop Combi (Thermo Electron Corp), 30 μL (final cell density=5,000 cells/well) of the working stock solution was dispensed into each well of white 384-well assay ready plates (Nunc™, 164610) containing 6 ng/mL doxycycline, to induce APOL1 expression, and compound. All compounds were plated in a duplicate 8-point dilution series that consisted of 3-fold stepwise dilutions (0.5% DMSO final). Assay plates were incubated (humidified, 37° C. with 5% CO2) for 17 hours. After the incubation, the plates were equilibrated at room temperature for 1 hour. Next, 15 μl of CellTiter-Glo® reagent (Promega, G7570) was added to each well using a MultiDrop Combi. Plates were placed on an orbital shaker (500 rpm) for 5 minutes to induce cell lysis and then incubated at room temperature for 10 minutes. Luminescence was measured on an Envision plate reader. Collaborative Drug Discovery software was utilized for graphing data. Plots were generated using a four parameter logistic curve fit.
Table B2 below provides the results from this experiment. Unless otherwise specified, EC50 values are reported as the geometric mean of at least 2 assay runs on separate days. Each run represents the average of a technical replicate, where each compound was assayed twice in the same plate. A superscript t symbol indicates a value from the average of a technical replicate from a single assay run, where each compound was assayed twice in the same plate. Compounds in Table B2 are referred to by the corresponding Compound Number in Table 1, which is also referred to in the synthetic examples. When one or more of the numbered compounds are identified by stereochemistry (for example, (R)- or (S)-), the specific stereoisomer for which data is provided in Table B2 may be identified by the elution order of such compound as described in the synthetic examples. To illustrate, Compound 2 is the first-eluting enantiomer of step 4 of Example 1 and Compound 3 is the second-eluting enantiomer of step 4 of Example 1. Further, by way of illustration, Compound 27 is the first-eluting enantiomeric mixture in step 4 of Example 7 and Compound 28 is the second-eluting enantiomeric mixture in step 4 of Example 7. Then, Compound 27 is separated into Compound 29 (the first-eluting enantiomer) and Compound 30 (the second-eluting enantiomer) in Example 8, and Compound 28 is separated into Compound 31 (the first-eluting enantiomer) and Compound 32 (the second-eluting enantiomer) in Example 8. Absolute stereochemistry of such compounds may be identified by methods known in the art.
Rescue EC50 values reported in Table B2 below represent the half-maximal effective concentration for reversal of cell death caused by overexpression of APOL1.
(ATP-based viability assays read luminescence as a measure of living cells.)

For the compound `C[C@@H]1C[C@H](COc2ccc(S(=O)(=O)CCS(C)(=O)=O)cc2)CN1C1CCc2ccc(Cl)cc2C1` (single isomer, unassigned) [Compound 50, (2R,4S)-1-[(2S or 2R)-7-chloro-1,2,3,4-tetrahydronaphthalen-2-yl]-4-{[4-(2-methanesulfonylethanesulfonyl)phenoxy]methyl}-2-methylpyrrolidine], the AC50 (as a rule, the midpoint of the concentration-response curve, whichever way the signal moves) on APOL1 G2 [1] stood at 1.07 µM. Further, on APOL1 G2 [2], the EC50 (in general, the concentration needed to bring the measured effect to its halfway point) worked out at 0.346 µM.
`C[C@@H]1CN(C2CCc3ccc(Cl)cc3C2)C[C@H]1COc1ccc(S(C)(=O)=O)cc1` (single isomer, unassigned) [Compound 16, (3S,4S)-1-[(2R or 2S)-7-chloro-1,2,3,4-tetrahydronaphthalen-2-yl]-3-[(4-methanesulfonylphenoxy)methyl]-4-methylpyrrolidine]: the AC50 on APOL1 G2 [1] is 1.08 µM. Moreover, on APOL1 G2 [2], the 50% effective concentration (EC50) stood at 0.712 µM.
For the compound `C[C@@H]1CN(C2CCc3ccc(Cl)cc3C2)C[C@H]1COc1ccc(S(C)(=O)=O)cc1` (stereo partly drawn) [Compound 14, (3S,4S)-1-[7-chloro-1,2,3,4-tetrahydronaphthalen-2-yl]-3-[(4-methanesulfonylphenoxy)methyl]-4-methylpyrrolidine], at APOL1 G2 [1], the AC50 was 0.767 µM. Besides, on APOL1 G2 [2], the EC50 was 0.544 µM.
On to `CC(c1ccc(OC[C@@H]2CN(CCc3cccc(Cl)c3)CCN2)cc1)S(C)(=O)=O` (single isomer, unassigned) [Compound 141, (3S)-1-[2-(3-chlorophenyl)ethyl]-3-({4-[(1R) or (1S)-1-methanesulfonylethyl]phenoxy}methyl)piperazine], for which, at APOL1 G2 [1], the half-maximal activity concentration (AC50) came out at 0.16 µM. Moreover, the EC50 on APOL1 G2 [2] was 0.234 µM.
Take `C[C@@H]1CN(CCc2cccc(C#N)c2)C[C@H]1COc1ccc(S(C)(=O)=O)c(C#N)c1` [Compound 86, 5-{[(3S,4S)-1-[2-(3-cyanophenyl)ethyl]-4-methylpyrrolidin-3-yl]methoxy}-2-methanesulfonylbenzonitrile]: the AC50 at APOL1 G2 [1] was 0.117 µM. Further, on APOL1 G2 [2], the concentration giving a half-maximal response (EC50) was found to be 0.0204 µM.
As to `CS(=O)(=O)c1ccc(OC[C@@H]2CCCN(C3CCc4ccc(Cl)cc4C3)C2)cc1` (single isomer, unassigned) [Compound 133, (3R)-1-[(2R or 2S)-7-chloro-1,2,3,4-tetrahydronaphthalen-2-yl]-3-[(4-methanesulfonylphenoxy)methyl]piperidine], on APOL1 G2 [1], the AC50 was determined as 1.15 µM. In addition, the EC50 on APOL1 G2 [2] turned out to be 1.91 µM.
With `C[C@@H]1C[C@H](COc2ccc(S(C)(=O)=O)cc2)CN1C1CCc2ccc(Cl)cc2C1` (single isomer, unassigned) [Compound 6, (2R,4S)-1-[(2R or 2S)-7-chloro-1,2,3,4-tetrahydronaphthalen-2-yl]-4-[(4-methanesulfonylphenoxy)methyl]-2-methylpyrrolidine], at APOL1 G2 [1], the AC50 was 0.839 µM. In addition, the EC50 at APOL1 G2 [2] turned out to be 0.661 µM.
Consider `CC(C(O)c1cc(Cl)cc(C#N)c1)N1C[C@@H](COc2ccc(S(C)(=O)=O)cc2)[C@H](C)C1` (single isomer, unassigned) [Compound 102, 3-chloro-5-((1R,2R or 1S,2S)-1-hydroxy-2-((3S,4S)-3-methyl-4-((4-(methylsulfonyl)phenoxy)methyl)pyrrolidin-1-yl)propyl)benzonitrile], for which the AC50 on APOL1 G2 [1] stood at 0.744 µM. Further, the EC50 at APOL1 G2 [2] was more than 10 µM.
For `C[C@@H]1C[C@H](COc2ccc(S(=O)(=O)CCO)cc2)CN1C1CCc2ccc(C#N)cc2C1` (stereo partly drawn) [Compound 58, 7-[(2R,4S)-4-{[4-(2-hydroxyethanesulfonyl)phenoxy]methyl}-2-methylpyrrolidin-1-yl]-5,6,7,8-tetrahydronaphthalene-2-carbonitrile], the AC50 at APOL1 G2 [1] was 0.581 µM. Besides, the EC50 on APOL1 G2 [2] is 0.0435 µM.
For `C[C@@H]1CN(C(CO)Cc2cccc(Cl)c2)C[C@H]1COc1ccc(S(C)(=O)=O)cc1` (single isomer, unassigned) [Compound 117, (2S or 2R)-3-(3-chlorophenyl)-2-[(3S,4S)-3-[(4-methanesulfonylphenoxy)methyl]-4-methylpyrrolidin-1-yl]propan-1-ol], the AC50 at APOL1 G2 [1] is 0.483 µM. Also, the EC50 at APOL1 G2 [2] came to 0.755 µM.
